Publication PMC9225045, “Purification and Characterization of a Novel α-L-Rhamnosidase from Papiliotrema laurentii ZJU-L07 and Its Application in Production of Icariin from Epimedin C” (Journal of Fungi, 2022)
Where two headings read alike, the source gives them in different places.

What was measured:
[1] = test system: T1, α-L-rhamnosidase from P. laurentii ZJU-L07; settings: 1.0-5.0 mM substrate; pH and temperature of the kinetic assay not stated separately
T1 construct: gene EC 3.2.1.40
From the text: Lineweaver-Burk; HPLC for epimedin C and icariin on α-L-rhamnosidase from P. laurentii ZJU-L07 | When epimedin C was used as a nature substrate to determine the kinetic parameters

[2] = test system: T2, α-L-rhamnosidase from P. laurentii ZJU-L07; experiment: p-nitrophenol release at […] nm, Lineweaver-Burk; type: biochemical, Papiliotrema laurentii; settings: pH 7.0 citric acid-Na2HPO4, 55 °C (standard assay); 2.0-10.0 mM substrate
T2 construct: gene EC 3.2.1.40; native intracellular enzyme purified from cells of the soil isolate (strain mutagenized by gamma rays and nitrosoguanidine); 100 kDa by SDS-PAGE

Km [1]	SMILES	Km [2]
3280 µM	COc1ccc(-c2oc3c(CC=C(C)C)c(O[C@@H]4O[C@H](CO)[C@@H](O)[C@H](O)[C@H]4O)cc(O)c3c(=O)c2O[C@@H]2O[C@@H](C)[C@H](O)[C@@H](O)[C@H]2O[C@@H]2O[C@@H](C)[C@H](O)[C@@H](O)[C@H]2O)cc1 [epimedin C]	
	C[C@@H]1O[C@@H](Oc2ccc([N+](=O)[O-])cc2)[C@H](O)[C@H](O)[C@H]1O [p-nitrophenyl-α-L-rhamnopyranoside]	1380 µM
